# Where a name gives a salt, the structure may show the parent alone.
# Key:
# [1] = target: T1, Rat plasma DPP-IV (Rattus norvegicus, UniProt P14740); assay: Plasma DPP-IV inhibitory activity, fluorescence assay with Gly-Pro-MCA (rat plasma); assay type: biochemical; details: rat plasma (10-fold dilution), Gly-Pro-MCA substrate, room temperature, 60 min
# T1 construct: Rat plasma DPP-IV; from tissue; host or cells: rat plasma
# Description: (§1) The plasma DPP-IV inhibitory activity of human and rat was measured according to the fluorescence assay method and under the conditions of Table 10. As a DPP-IV specific fluorescent substrate, Gly-Pro-MCA (Peptide Institute, Inc.) was used, and reaction solutions having the following compositions containing various concentrations of the test substance were incubated at room temperature for 60 min and the fluorescence intensity (Excitation 360 nm/Emission 465 nm) measured (SPECTRA FLUOR, Tecan Group, Ltd.) was taken as the DPP-IV activity.
# (§2) The inhibitory ratio to a solvent addition group was calculated and IC50 value was determined by logistic analysis.
# [2] = target: T2, Human plasma DPP-IV (Homo sapiens, UniProt P27487); assay: Plasma DPP-IV inhibitory activity, fluorescence assay with Gly-Pro-MCA (human plasma); assay type: biochemical; details: for IC50: human plasma (10-fold dilution), Gly-Pro-MCA substrate, room temperature, 60 min
# T2 construct: Human plasma DPP-IV; from tissue; host or cells: human plasma
# Description: as §1, §2
# T2 sequence (P27487 39-766 limits assumed): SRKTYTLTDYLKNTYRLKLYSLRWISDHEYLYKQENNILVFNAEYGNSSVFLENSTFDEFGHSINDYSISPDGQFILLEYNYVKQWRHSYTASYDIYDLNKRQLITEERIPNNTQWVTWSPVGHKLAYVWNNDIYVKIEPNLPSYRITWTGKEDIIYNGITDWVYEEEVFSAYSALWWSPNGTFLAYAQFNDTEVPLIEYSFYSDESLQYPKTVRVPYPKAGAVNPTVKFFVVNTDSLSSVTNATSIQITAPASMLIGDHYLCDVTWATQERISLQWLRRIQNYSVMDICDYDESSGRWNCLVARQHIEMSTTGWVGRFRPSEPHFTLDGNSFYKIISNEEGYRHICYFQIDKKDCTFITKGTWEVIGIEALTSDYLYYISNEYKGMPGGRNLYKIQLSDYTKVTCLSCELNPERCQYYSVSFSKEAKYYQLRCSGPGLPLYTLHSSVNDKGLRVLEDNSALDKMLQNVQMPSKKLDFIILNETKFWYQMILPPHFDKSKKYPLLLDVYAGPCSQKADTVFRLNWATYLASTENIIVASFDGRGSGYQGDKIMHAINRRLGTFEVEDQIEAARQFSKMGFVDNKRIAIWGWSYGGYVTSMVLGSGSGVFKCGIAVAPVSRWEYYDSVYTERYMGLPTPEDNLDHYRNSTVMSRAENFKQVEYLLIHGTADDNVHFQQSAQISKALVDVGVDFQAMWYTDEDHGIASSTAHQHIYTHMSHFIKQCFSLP
# T1 sequence (P14740 38-767 limits assumed): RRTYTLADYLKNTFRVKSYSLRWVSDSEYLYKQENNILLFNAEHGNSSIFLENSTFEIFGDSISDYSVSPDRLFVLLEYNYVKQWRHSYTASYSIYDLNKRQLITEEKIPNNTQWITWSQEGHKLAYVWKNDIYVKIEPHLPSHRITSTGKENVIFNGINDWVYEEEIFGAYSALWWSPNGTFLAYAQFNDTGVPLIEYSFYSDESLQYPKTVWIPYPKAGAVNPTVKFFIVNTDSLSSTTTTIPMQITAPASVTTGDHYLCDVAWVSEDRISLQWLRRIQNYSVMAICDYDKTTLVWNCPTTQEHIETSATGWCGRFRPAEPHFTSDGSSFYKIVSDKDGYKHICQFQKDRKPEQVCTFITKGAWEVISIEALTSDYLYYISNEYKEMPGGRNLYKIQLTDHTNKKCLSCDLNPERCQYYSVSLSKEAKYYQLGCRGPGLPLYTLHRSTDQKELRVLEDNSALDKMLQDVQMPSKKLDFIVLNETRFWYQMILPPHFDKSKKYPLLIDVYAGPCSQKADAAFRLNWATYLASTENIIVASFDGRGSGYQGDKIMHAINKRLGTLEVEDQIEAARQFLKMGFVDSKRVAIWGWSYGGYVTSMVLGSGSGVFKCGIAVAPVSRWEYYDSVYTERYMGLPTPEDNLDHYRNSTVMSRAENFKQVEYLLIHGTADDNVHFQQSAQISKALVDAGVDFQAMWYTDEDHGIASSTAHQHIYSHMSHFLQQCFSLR
IC50 [1],IC50 [2],Structure (SMILES),"plasma DPP-IV inhibitory activity (assessment in words) ([2]; statement in the text on Experimental Example 1, species not distinguished)"
18 nM,29 nM,"N[C@@H](CCCCNc1ccc([N+](=O)[O-])cn1)C(=O)N1CCSC1 [Example 14, 3-[(S)-2-amino-6-(5-nitropyridin-2-ylamino)hexanoyl]-1,3-thiazolidine]",
49 nM,35 nM,"N[C@@H](CCCCN1CCN(c2cc(C(F)(F)F)nc3ccccc23)CC1)C(=O)N1CCSC1 [Example 28, 3-{(S)-2-amino-6-[4-(2-trifluoromethyl-4-quinolyl)piperazin-1-yl]hexanoyl}-1,3-thiazolidine dihydrochloride]",
0.37 nM,0.25 nM,"O=C([C@@H]1C[C@H](N2CCN(c3cc(C(F)(F)F)nc4ccc(O)cc34)CC2)CN1)N1CCSC1 [Example 48, 3-{(2S,4S)-4-[4-(2-trifluoromethyl-6-hydroxy-4-quinolyl)-1-piperazinyl]-2-pyrrolidinylcarbonyl}-1,3-thiazolidine dihydrochloride]",
0.3 nM,0.24 nM,"COc1cc(OC)c2nc(C(F)(F)F)cc(N3CCN([C@@H]4CN[C@H](C(=O)N5CCSC5)C4)CC3)c2c1 [Example 55, 3-{(2S,4S)-4-[4-(2-trifluoromethyl-6,8-dimethoxy-4-quinolyl)-1-piperazinyl]-2-pyrrolidinylcarbonyl}-1,3-thiazolidine dihydrochloride]",
1.17 nM,0.91 nM,"Cc1cc(C)n(C2CCN([C@@H]3CN[C@H](C(=O)N4CCSC4)C3)CC2)n1 [Example 56, 3-{(2S,4S)-4-[4-(3,5-dimethyl-1-pyrazolyl)piperidino]-2-pyrrolidinylcarbonyl}-1,3-thiazolidine trihydrochloride]",

# The remaining lines, values behind:
Structure (SMILES),IC50 [1],IC50 [2],"plasma DPP-IV inhibitory activity (assessment in words) ([2]; statement in the text on Experimental Example 1, species not distinguished)"
"N#Cc1ccc(NCCCC[C@H](N)C(=O)N2CCSC2)c([N+](=O)[O-])c1 [Example 5, 3-[(S)-2-amino-6-(4-cyano-2-nitrophenylamino)hexanoyl]-1,3-thiazolidine]",19 nM,28 nM,
"N#Cc1ccc(NCCCC[C@H](N)C(=O)N2CCSC2)nc1 [Example 6, 3-[(S)-2-amino-6-(5-cyanopyridin-2-ylamino)hexanoyl]-1,3-thiazolidine dihydrochloride]",29 nM,34 nM,
"CS(=O)(=O)c1ccc(NCCCC[C@H](N)C(=O)N2CCSC2)cc1 [Example 7, 3-[(S)-2-amino-6-(4-methanesulfonylphenylamino)hexanoyl]-1,3-thiazolidine]",13 nM,15 nM,
"N#Cc1ccc(NCCCC[C@H](N)C(=O)N2CCSC2)cc1C(F)(F)F [Example 13, 3-{(S)-2-amino-6-[4-cyano-3-(trifluoromethyl)phenylamino]hexanoyl}-1,3-thiazolidine]",40 nM,66 nM,
"NCCCC[C@H](N)C(=O)N1CCSC1.O=C(O)C(F)(F)F.O=C(O)C(F)(F)F [comparison compound 1, 3-L-lysyl-1,3-thiazolidine ditrifluoroacetate, reference compound]",719 nM,856 nM,sufficient
